Laboratory results published in US20250041307A1, “Uses of Bicyclic Compounds for the Treatment of Diseases” (Athira Pharma, Inc., priority 2021, published 2025).

Columns and labels:
MDCK cells = assay: Cell scattering behavior assay; type: cell-based; set-up: key: − indicates that the compound failed to significantly promote cell scattering behavior; + indicates maximum potency at or above 100 nM; ++ indicates maximum potency at or above 10 nM; +++ indicates maximum potency at or above 1 nM; ++++ indicates maximum potency at or above 0.1 nM; conditions: with 5 ng/mL HGF, 24 hours, normalized particle count compared to HGF treatment alone
Description: MDCK cells were grown under normal conditions and observed to spontaneously form tight colonies as they proliferate. MDCK cells respond to HGF treatment by moving away from each other (scattering), which is quantified to assess the amount of HGF/MET activation in the cell population. In this experiment, MDCK cells were plated in a 96-well format, treated with HGF and exemplary compounds, fluorescently stained, imaged in large fields, and scattering behavior was quantified. Quantification was determined by analyzing the number of continuous groups of cells compared to the total stained area imaged (normalized particle counts).
MDCK cells were plated at low density in black-walled imaging plates and allowed to attach overnight at 37° C. and 5% CO2 in DMEM+10% FBS. Cells were then starved to 2 hours in DMEM without FBS (“starve media”). Samples containing exemplary compounds were prepared in DMEM without FBS and included 5 ng/mL HGF protein (“treatment media”). A control curve was also prepared for each plate using HGF concentrations of 0, 5, 10, and 20 ng/mL. Starve media was replaced with treatment media and cells were incubated for 24 hours at 37° C. and 5% CO2.
After incubation, cells were fixed by replacing treatment media with cold ethanol and incubating for 20 minutes at 4° C. Cells were then rehydrated by washing with PBS and then with stain solution (fluorescent wheat germ agglutinin; WGA488 at 20 μg/mL in PBS). Cells were incubated with stain solution 30 minutes at room temperature after which stain solution was replaced with fresh PBS.
Fields of cells were imaged using an iCyte high content imager in the green wavelength. Images were converted to binary and analyzed for particle size and particle count. For the purpose of analysis, an individual cell touching no other cells or separated colonies of cells were identified as particles, and particle counts were normalized by the total signal area to account for differences in cell number. […] Compound potency was assessed by statistical increase in normalized particle count compared to HGF treatment alone.

[1] = test system: hepatocyte (HepG2) cell cultures; assay: Cytotoxicity assay (LDH release); type: cell-based; conditions: HepG2 cells, 48 hours, 0.1 to 100 μM
Description: This experiment was designed to obtain a preliminary assessment of cytotoxicity.
HepG2 cells were plated in 96-well cell culture plates and allowed to attach overnight at 37° C., 5% CO2 in EMEM+10% FBS. Treatments were made in complete media (EMEM+10% FBS) and included a dilution series of test compounds from 0.1 to 100 μM. Known cytotoxin cerivastatin was used as a positive assay control and prepared at a final concentration of 0.5 μM.
Growth media was replaced with treatment media (EMEM+10% FBS containing test compound dissolved in DMSO) and cells were incubated with test compounds for 48 hours. At the end of the incubation period, supernatant media from each well was transferred to a new plate and LDH assay working solution was added. LDH assay solution undergoes a colorimetric reaction in proportion to the amount of lactate dehydrogenase (an intracellular protein that was only found in the media in the presence of lysed cells) in the media. Color reaction was quantified by measurement of absorbance at a wavelength of 490 nm.
The signal range of the assay was determined by no manipulation in a negative control treatment and full lysis of all cells in a lysis control sample. Compounds that increase the level of cytotoxicity more than 20% above negative control samples were considered cytotoxic in this assay.

[2] = Parallel artificial membrane permeability assay (PAMPA); type: in vitro ADME; conditions: PBS, room temperature for 5 hours, 200 uM in donor well
Description: Bioavailable drugs must permeate the cellular membranes of the lining of the digestive tract. To estimate the penetrability of exemplary compounds, the in vitro parallel artificial membrane permeability assay (PAMPA) was utilized.
Test compounds must have a standard curve in the final read plate to determine partitioned concentration of each drug. A 6-point standard curve was prepared for each compound from 0 to 200 μM in phosphate-buffered saline (PBS).
Test compound solution (300 μL in PBS) was added to the donor (bottom) well of the PAMPA plate in 5 replicates and PBS vehicle (200 μL) was added to the acceptor (top) wells of appropriate wells to match the loading of the donor plate. The bottom and top of the PAMPA plates were then sandwiched together. The PAMPA plates were then incubated at room temperature for 5 hours. After incubation, 150 μL of donor solution was added to a UV compatible plate containing the corresponding standard curve. 150 μL of acceptor well solution was added adjacent to the corresponding standard curve and donor well samples for that compound. The plate was then read using a UV plate reader.
Permeability and membrane retention were then calculated based on the following formulas:
where: • A=filter area (0.3 cm^2); • VD=donor well volume (0.3 mL); • VA=acceptor well volume (0.2 mL); • t=incubation time (seconds); • CA(t)=compound concentration in acceptor well at time t; • CD(t)=compound concentration in donor well at time t; and
where: • CD(t), VD, CA(t), and VA are as defined for equation 1, and • C0=initial concentration in donor well (200 uM).

HGF/MET system = assay: Phospho-MET ELISA; type: cell-based; set-up: key: − indicates that the compound failed to significantly augment MET phosphorylation; + indicates maximum potency at or above 100 nM; ++ indicates maximum potency at or above 10 nM; +++ indicates maximum potency at or above 1 nM; ++++ indicates maximum potency at or above 0.1 nM; conditions: HEK293 cells; with 1 ng/mL recombinant HGF; 15 minutes; augmentation of MET phosphorylation (pMET ELISA)
Description: Compounds were screened for potency towards the HGF/MET system using phospho-MET (pMET) ELISA kits (Cell Signaling). pMET levels were detected in samples having low (1 ng/mL) and high (10 ng/mL) concentrations of HGF.
HEK293 cells were prepared by passage into 6-well multi-plates and grown at 37° C. at 5% CO2 in DMEM+10% FBS until approximately 90% confluent. Cells were then starved for at least 8 hours in serum-free growth media.
Exemplary compounds were prepared in DMEM+0.1% FBS, diluted and added to treatment media with 1 ng/mL recombinant HGF protein (R&D Systems). Cells were incubated in triplicate at 37° C. and 5% CO2 for 15 minutes. Samples were then treated with 180 μL ice-cold RIPA (radioimmunoprecipitation assay) buffer and cells were lysed on ice for 15 minutes. Lysates were cleared by centrifugation at 16,000-g for 15 minutes and the supernatant was retained. Samples were normalized using a BCA assay of lysates to determine protein concentrations across the samples.
Between 50 and 100 μg total protein lysate was loaded into ELISA wells in pMET Sandwich ELISA kit (Cell Signaling Catalog #7227C), ensuring equal protein load in each well. The ELISA was processed according to manufacturer's instructions. After color developed, absorbance was read on an optical plate reader at 450 nm.
Potency measurements were determined using peak efficacy by scaling test compound dose treatments along a scale of 1-10 between 1 ng/mL and 10 ng/mL HGF doses according to the following formula: […]
where y is the normalized data-point, x is the raw data point, A is the mean HGF at 1 ng/mL, and B is the mean HGF at 10 ng/mL.

[3] = test system: Rat primary cortical neuron cultures; assay: Protection from neurotoxicity in vitro (Cell Titer-Glo viability); type: cell-based; conditions: for Protection of cell viability, statistical significance vs. insult control: Positive Control (1 uM)
Description: HGF/MET signaling activation is expected to protect cells, including neurons, from cell death. […] Hydrogen peroxide (H2O2) treatment produces toxic oxidative stress. Bacteria-derived lipopolysaccharide (LPS) treatment induces inflammatory cell death. Treatment with excess glutamate (Glut) produces excitotoxicity in neuron cultures. Treatment with 1-methyl-4-phenylpyridinium (MPP^+) causes cell death by inhibition of mitochondrial function.
Rat primary cortical neuron cultures were grown at 37° C., 5% CO2 in Complete Neurobasal Medium supplemented with B27/GDNF/BDNF containing 10% FBS until maturity and were then seeded in 384-well plate at 5,000 cells/well. Cultures were then treated for 15 minutes with 1 uM, 100 nM, 10 nM, 1 nM, or 0.1 nM of compound 1a. Cells were then subjected to individual conditional insults for 24 hours at the following concentrations: H2O2 at 1 uM, LPS at 1 uM, glutamate at 25 uM, MPP+ at 500 uM. All treatments contained recombinant human HGF (R&D Systems) at a concentration of 5 ng/ml.
To quantify neuroprotection, cell viability was measured with the Cell Titer-Glo Luminescent Cell Viability Assay (Promega, Cat #G7571). Data was normalized to DMSO+HGF control set at 100% cell viability. Statistical analyses for each group (n=4) were performed using one-way ANOVA with Tukey's Multiple comparison test.
Data is reported as statistical significance vs. insult control, with NS=not significant, +=p<0.05, ++=p<0.01, and +++=p<0.001.

[4] = test system: scopolamine-induced cognitive impairment; assay: Scopolamine-induced cognitive impairment, T-maze spontaneous alternation task; type: in vivo, CD-1 mice; conditions: mice; scopolamine only, 0.89 mg/kg
Excerpt: Mild cognitive impairment can be assessed in rodent models via delivery of various compounds that interfere with normal neurotransmitter signaling. Scopolamine is a compound that is well-known to antagonize muscarinic acetylcholine receptors, nicotinic receptors, as well as glutamatergic receptors such as NMDA receptors. Thus, delivery of scopolamine results in cognitive impairment, which can be assessed in a variety of cognitive tasks. Positive modulation of the HGF/MET system can promote NMDA receptor activation and results in pro-cognitive effects. Two test compounds, Compound 1a and Compound 5a, were evaluated for their ability to protect against scopolamine-induced cognitive impairment.
In this study, mild cognitive impairment was modeled in otherwise healthy male CD-1 mice (4-5 weeks old at study start) by acute delivery of 0.89 mg/kg scopolamine (dissolved in saline). Test compounds were administered via oral gavage 0.5 hours prior to scopolamine exposure, and cognitive performance was assessed in the T-maze spontaneous alternation task 0.5 hours after scopolamine exposure (1 hour following test compound exposure). The experimental protocol consisted of one single session, which started with 1 “forced-choice” trial, followed by 14 “free-choice” trials. In the first “forced-choice” trial, the animal was confined 5 seconds in the start arm and was then released while either the left or right goal arm was blocked by a horizontal door. After the mouse entered the open goal arm and returned to the start position, the left or right goal door was opened, and the animal was allowed to choose freely between the left and right goal arm (“free choice trials”). The animal was considered to have entered into an arm when it placed its four paws in the arm. Normal animals will choose to explore the previously-unexplored arm, which is recorded as a spontaneous alternation. […] The session was terminated, and the animal was removed from the maze as soon as 14 free-choice trials had been performed or 10 min had elapsed, whichever event occurred first.
This percentage was defined as entry into a different goal arm of the T maze over successive trials (e.g., left-right-left-right) and was calculated using the formula: (% alternations=Number of Alternations/14*100). Both compounds attenuated the degree of scopolamine-induced cognitive impairment, as indicated by increased percent of spontaneous alternations compared to scopolamine-only controls. Statistical analysis was accomplished via 1-way ANOVA with Dunnet's multiple comparisons post-test.

For `CCC(C)CN1CC2N(C(=O)c3ccc(O)nc3)CCC(=O)N2[C@@H](C)C1=O` (some centres unmarked) [Compound 4a], the Potency (MDCK cells) was “+ (+ indicates maximum potency at or above 100 nM)”, the Cytotoxicity [1] was “++++ (++++ indicates non-toxic at 100 μM)” and the Papp at 5 h, 200 uM [2] was greater than 10 ×10⁻⁶ cm/s. The Potency (HGF/MET system) was “+ (+ indicates maximum potency at or above 100 nM)”.
With `CCC(C)N1CC2N(Cc3ccc(O)cc3)CCC(=O)N2CC1=O` (centres unmarked) [Compound 9] the Potency (MDCK cells) was “−”, the Cytotoxicity [1] was “++++ (++++ indicates non-toxic at 100 μM)” and the Papp at 5 h, 200 uM [2] was greater than 2 ×10⁻⁶ cm/s. The Potency (HGF/MET system) was “−”.
For `CCC(C)CN1CC2N(Cc3ccc(F)cc3)CCC(=O)N2C(C)C1=O` (centres unmarked) [Compound 42], the Potency (MDCK cells) was “+++ (+++ indicates maximum potency at or above 1 nM)”, the Cytotoxicity [1] was “++++ (++++ indicates non-toxic at 100 μM)” and the Papp at 5 h, 200 uM [2] was greater than 2 ×10⁻⁶ cm/s. For the same molecule, the Potency (HGF/MET system) was “++++ (++++ indicates maximum potency at or above 0.1 nM)”.
For `CCC(C)CN1CC2N(Cc3ccc(OC(F)F)cc3)CCC(=O)N2C(CC(=O)O)C1=O` (centres unmarked) [Compound 49, 2-(1-(4-(difluoromethoxy)benzyl)-8-(2-methylbutyl)-4,7-dioxooctahydro-2H-pyrazino[1,2-a]pyrimidin-6-yl)acetic acid], the Potency (MDCK cells) was “++++ (++++ indicates maximum potency at or above 0.1 nM)”, the Cytotoxicity [1] was “++++ (++++ indicates non-toxic at 100 μM)” and the Papp at 5 h, 200 uM [2] was greater than 2 ×10⁻⁶ cm/s. The Potency (HGF/MET system) was “++++ (++++ indicates maximum potency at or above 0.1 nM)”.
For `CC1C(=O)N(CCC2CCC2)CC2N(Cc3ccc(C(F)(F)F)c(Cl)c3)CCC(=O)N12` (centres unmarked) [Compound 51], the Potency (MDCK cells) was “+++ (+++ indicates maximum potency at or above 1 nM)”, the Cytotoxicity [1] was “+++ (+++ indicates non-toxic at 10 μM)” and the Papp at 5 h, 200 uM [2] was less than 2 ×10⁻⁶ cm/s. The Potency (HGF/MET system) was “+++ (+++ indicates maximum potency at or above 1 nM)”.
In the case of `C[C@]12N[C@H](Cc3ccccc31)c1ccccc12` [MK-801, reference compound], the “Protection of cell viability, statistical significance vs. insult control” value ([3]; insult Glutamate (25 uM) 24 hours) was “+++ (+++=p<0.001)”, the “Protection of cell viability, statistical significance vs. insult control” value ([3]; insult H2O2 (1 uM) 24 hours) was “+++ (+++=p<0.001)” and the “Protection of cell viability, statistical significance vs. insult control” value ([3]; insult LPS (1 uM) 24 hours) was “+++ (+++=p<0.001)”. For the same molecule, the “Protection of cell viability, statistical significance vs. insult control” value ([3]; insult MPP+ (500 uM) 24 hours) was “+++ (+++=p<0.001)”.
With `C[n+]1ccc(-c2ccccc2)cc1` [MPP+, 1-methyl-4-phenylpyridinium, reference compound] the “Insult effect (% viability vs vehicle)” value ([3]; 500 uM, 24 hours, with HGF 5 ng/ml) was 49.85%.
Molecule `CN1[C@@H]2C[C@@H](OC(=O)[C@H](CO)c3ccccc3)C[C@H]1[C@@H]1O[C@@H]12` [SCO, scopolamine, reference compound] has a Spontaneous alternations % [4] of 37%.
